Laboratory results from patent US20060287247A1, “Halogen-substituted thienyl compounds” (priority 2001, published 2006).
≈ marks a conversion by molar mass, not a printed value.

How the values were obtained:
E. faecalis ATCC 29212 = test: NCCLS broth microdilution MIC; assay type: cell-based, Enterococcus faecalis; details: for Minimum Inhibitory Concentration (MIC): B = E. faecalis ATCC 29212
Method: (§1) Compounds according to this invention were screened for their in vitro activities against selected species of bacteria and fungi. The minimal inhibition concentration (MIC) of these compounds was determined using the National Committee for Clinical Laboratory Standards (NCCLS) broth microdilution assay in microtiter plates, as set forth in: (1) the guidelines of the National Committee for Clinical Laboratory Standards (NCCLS) Document M7-A4 (NCCLS, 1997); (2) the guidelines of the National Committee for Clinical Laboratory Standards (NCCLS) Document M11-A4 (NCCLS, 1997); and (3) the guidelines and reference method of the National Committee for Clinical Laboratory Standards (NCCLS) Document M27-T (NCCLS, 1995). For antifungal essays, the method recommended in Murray, P R., 1995 Manual of Clinical Microbiology (ASM Press, Washington, D.C.), was employed. […]

C. albicans ATCC 38247 = test: NCCLS broth microdilution MIC (antifungal); assay type: cell-based; details: for Minimum Inhibitory Concentration (MIC): E = C. albicans ATCC 38247
Method: as §1

B. cereus ATCC 11778 = test: NCCLS broth microdilution MIC; assay type: cell-based, Bacillus cereus; details: for Minimum Inhibitory Concentration (MIC): C = B. cereus ATCC 11778
Method: as §1

S. aureus ATCC 29213 = test: NCCLS broth microdilution MIC; assay type: cell-based, Staphylococcus aureus; details: for Minimum Inhibitory Concentration (MIC): A = S. aureus ATCC 29213
Method: as §1

S. pneumoniae ATCC 49619 = test: NCCLS broth microdilution MIC; assay type: cell-based, Streptococcus pneumoniae; details: for Minimum Inhibitory Concentration (MIC): F = S. pneumoniae ATCC 49619
Method: as §1

E. coli ATCC 25922 = test: NCCLS broth microdilution MIC; assay type: cell-based; details: for Minimum Inhibitory Concentration (MIC): D = E. coli ATCC 25922
Method: as §1

## Cn1cc(NC(=O)c2cc(NC(=O)c3cc(NC=O)cn3C)cn2C)cc1C(=O)NCCC(=N)N [Distamycin, distamycin, reference compound]
E. faecalis ATCC 29212; Enterococcus faecalis, ATCC29212, read-out: Minimum Inhibitory Concentration (MIC)
  MIC: 12 to 32 µg/mL (≈ 24.9 to 66.5 µM)
C. albicans ATCC 38247; Candida albicans, ATCC38247, read-out: Minimum Inhibitory Concentration (MIC)
  MIC: > 32 µg/mL
B. cereus ATCC 11778; Bacillus cereus, ATCC11778, read-out: Minimum Inhibitory Concentration (MIC)
  MIC: 4 to 12 µg/mL (≈ 8.31 to 24.9 µM)
S. aureus ATCC 29213; Staphylococcus aureus, ATCC29213, read-out: Minimum Inhibitory Concentration (MIC)
  MIC: 12 to 32 µg/mL (≈ 24.9 to 66.5 µM)
S. pneumoniae ATCC 49619; Streptococcus pneumoniae, ATCC49619, read-out: Minimum Inhibitory Concentration (MIC)
  MIC: 12 to 32 µg/mL (≈ 24.9 to 66.5 µM)
E. coli ATCC 25922; Escherichia coli, ATCC25922, read-out: Minimum Inhibitory Concentration (MIC)
  MIC: > 32 µg/mL

## Cn1cc(NC(=O)c2cc(NC(=O)CCNC(=O)c3cc(NC(=O)c4cc(NC(=O)c5cc(Br)c(Br)s5)cn4C)cn3C)cn2C)cc1C(=O)NCCC(=O)NCCCCN [Id-8]
E. faecalis ATCC 29212
  Minimum Inhibitory Concentration (MIC): +++ (+++ = MIC ≦4)
C. albicans ATCC 38247
  Minimum Inhibitory Concentration (MIC): >32 µg/mL
B. cereus ATCC 11778
  Minimum Inhibitory Concentration (MIC): >32 µg/mL
S. aureus ATCC 29213
  Minimum Inhibitory Concentration (MIC): >32 µg/mL
S. pneumoniae ATCC 49619
  Minimum Inhibitory Concentration (MIC): +++ (+++ = MIC ≦4)
E. coli ATCC 25922
  Minimum Inhibitory Concentration (MIC): >32 µg/mL

## Cn1cc(NC(=O)c2cc(NC(=O)CCNC(=O)c3cc(NC(=O)c4cc(NC(=O)c5cc(Br)c(Br)s5)cn4C)cn3C)cn2C)cc1C(=O)NCCC(=O)NCCCN [Id-9]
E. faecalis ATCC 29212
  Minimum Inhibitory Concentration (MIC): +++ (+++ = MIC ≦4)
C. albicans ATCC 38247
  Minimum Inhibitory Concentration (MIC): >32 µg/mL
B. cereus ATCC 11778
  Minimum Inhibitory Concentration (MIC): +++ (+++ = MIC ≦4)
S. aureus ATCC 29213
  Minimum Inhibitory Concentration (MIC): +++ (+++ = MIC ≦4)
S. pneumoniae ATCC 49619
  Minimum Inhibitory Concentration (MIC): +++ (+++ = MIC ≦4)
E. coli ATCC 25922
  Minimum Inhibitory Concentration (MIC): >32 µg/mL

## CN(C)CCN(C)C(=O)CCNC(=O)c1cc(NC(=O)c2cc(NC(=O)CCNC(=O)c3cc(NC(=O)c4cc(NC(=O)c5cc(Br)c(Br)s5)cn4C)cn3C)cn2C)cn1C [Id-10]
E. faecalis ATCC 29212
  Minimum Inhibitory Concentration (MIC): >32 µg/mL
C. albicans ATCC 38247
  Minimum Inhibitory Concentration (MIC): >32 µg/mL
B. cereus ATCC 11778
  Minimum Inhibitory Concentration (MIC): >32 µg/mL
S. aureus ATCC 29213
  Minimum Inhibitory Concentration (MIC): >32 µg/mL
S. pneumoniae ATCC 49619
  Minimum Inhibitory Concentration (MIC): +++ (+++ = MIC ≦4)
E. coli ATCC 25922
  Minimum Inhibitory Concentration (MIC): >32 µg/mL

## CCNCCNC(=O)CCNC(=O)c1cc(NC(=O)c2cc(NC(=O)CCNC(=O)c3cc(NC(=O)c4cc(NC(=O)c5cc(Br)c(Br)s5)cn4C)cn3C)cn2C)cn1C [Id-12]
E. faecalis ATCC 29212
  Minimum Inhibitory Concentration (MIC): +++ (+++ = MIC ≦4)
C. albicans ATCC 38247
  Minimum Inhibitory Concentration (MIC): >32 µg/mL
B. cereus ATCC 11778
  Minimum Inhibitory Concentration (MIC): +++ (+++ = MIC ≦4)
S. aureus ATCC 29213
  Minimum Inhibitory Concentration (MIC): +++ (+++ = MIC ≦4)
S. pneumoniae ATCC 49619
  Minimum Inhibitory Concentration (MIC): +++ (+++ = MIC ≦4)
E. coli ATCC 25922
  Minimum Inhibitory Concentration (MIC): >32 µg/mL

## CN(C)CCCNC(=O)CCNC(=O)c1cc(NC(=O)c2cc(NC(=O)CCNC(=O)c3cc(NC(=O)c4cc(NC(=O)c5sc(Br)c(Br)c5Cl)cn4C)cn3C)cn2C)cn1C [Id-26]
E. faecalis ATCC 29212
  Minimum Inhibitory Concentration (MIC): >32 µg/mL
C. albicans ATCC 38247
  Minimum Inhibitory Concentration (MIC): >32 µg/mL
S. aureus ATCC 29213
  Minimum Inhibitory Concentration (MIC): >32 µg/mL
S. pneumoniae ATCC 49619
  Minimum Inhibitory Concentration (MIC): + (+ = MIC from 12 to 32, inclusive)

## CN(C)CCCNC(=O)CCNC(=O)c1cc(NC(=O)c2cc(NC(=O)CCNC(=O)c3cc(NC(=O)c4cscc4Cl)cn3C)cn2C)cn1C [Id-28]
E. faecalis ATCC 29212
  Minimum Inhibitory Concentration (MIC): + (+ = MIC from 12 to 32, inclusive)
C. albicans ATCC 38247
  Minimum Inhibitory Concentration (MIC): >32 µg/mL
S. aureus ATCC 29213
  Minimum Inhibitory Concentration (MIC): +++ (+++ = MIC ≦4)
S. pneumoniae ATCC 49619
  Minimum Inhibitory Concentration (MIC): +++ (+++ = MIC ≦4)

## CN(C)CCCNC(=O)CCNC(=O)c1cc(NC(=O)c2cc(NC(=O)CCNC(=O)c3cc(NC(=O)c4ccc(Cl)s4)cn3C)cn2C)cn1C [Id-29]
E. faecalis ATCC 29212
  Minimum Inhibitory Concentration (MIC): >32 µg/mL
C. albicans ATCC 38247
  Minimum Inhibitory Concentration (MIC): >32 µg/mL
S. aureus ATCC 29213
  Minimum Inhibitory Concentration (MIC): >32 µg/mL
S. pneumoniae ATCC 49619
  Minimum Inhibitory Concentration (MIC): >32 µg/mL

## Cn1cc(NC(=O)c2cc(NC(=O)c3cc(NC(=O)c4sccc4Br)cn3C)cn2C)cc1C(=O)NCCN1CCOCC1 [Ie-2]
E. faecalis ATCC 29212
  Minimum Inhibitory Concentration (MIC): +++ (+++ = MIC ≦4)
C. albicans ATCC 38247
  Minimum Inhibitory Concentration (MIC): >32 µg/mL
S. aureus ATCC 29213
  Minimum Inhibitory Concentration (MIC): +++ (+++ = MIC ≦4)
S. pneumoniae ATCC 49619
  Minimum Inhibitory Concentration (MIC): +++ (+++ = MIC ≦4)

## Cn1cc(NC(=O)c2cc(NC(=O)c3cc(NC(=O)c4cc(Br)cs4)cn3C)cn2C)cc1C(=O)NCCN1CCOCC1 [Ie-3]
E. faecalis ATCC 29212
  Minimum Inhibitory Concentration (MIC): >32 µg/mL
C. albicans ATCC 38247
  Minimum Inhibitory Concentration (MIC): >32 µg/mL
S. aureus ATCC 29213
  Minimum Inhibitory Concentration (MIC): ++ (++ = MIC between 4 and 12)
S. pneumoniae ATCC 49619
  Minimum Inhibitory Concentration (MIC): +++ (+++ = MIC ≦4)

## Cn1cc(NC(=O)c2cc(NC(=O)c3cc(NC(=O)c4cc(NC(=O)c5sccc5Cl)cn4C)cn3C)cn2C)cc1C(=O)NCCN1CCOCC1 [Ie-12]
E. faecalis ATCC 29212
  Minimum Inhibitory Concentration (MIC): +++ (+++ = MIC ≦4)
C. albicans ATCC 38247
  Minimum Inhibitory Concentration (MIC): >32 µg/mL
B. cereus ATCC 11778
  Minimum Inhibitory Concentration (MIC): +++ (+++ = MIC ≦4)
S. pneumoniae ATCC 49619
  Minimum Inhibitory Concentration (MIC): +++ (+++ = MIC ≦4)
E. coli ATCC 25922
  Minimum Inhibitory Concentration (MIC): >32 µg/mL
